In patent US5424451A, “Process for preparing aminoalkylcarbamic esters of eseroline” (priority 1992, dated 1995):
Like-named read-outs stand apart in the source and are kept apart here.

Experiments:
[1] = molecular target: T1, acetylcholinesterase from human red blood cells (Homo sapiens, UniProt P22303); assay: Inhibition of acetylcholinesterase from human erythrocyte (Ellman colorimetric method); type: biochemical
T1 construct: purchased Sigma Chemical; host or cells: human erythrocyte

patients = conditions: prior art, cited from earlier work; for Clinical effects in patients (in words): mental diseases / Alzheimer's disease
acetylcholinesterase = conditions: cited from earlier work
[2] = prior art; cited from earlier work
[3] = molecular target: T2, butyrylcholinesterase from human serum (Homo sapiens, UniProt P06276); assay: Inhibition of butyrylcholinesterase from human serum (Ellman colorimetric method); type: biochemical
T2 construct: purchased Sigma Chemical; host or cells: human serum
T2 sequence (P06276 29-602): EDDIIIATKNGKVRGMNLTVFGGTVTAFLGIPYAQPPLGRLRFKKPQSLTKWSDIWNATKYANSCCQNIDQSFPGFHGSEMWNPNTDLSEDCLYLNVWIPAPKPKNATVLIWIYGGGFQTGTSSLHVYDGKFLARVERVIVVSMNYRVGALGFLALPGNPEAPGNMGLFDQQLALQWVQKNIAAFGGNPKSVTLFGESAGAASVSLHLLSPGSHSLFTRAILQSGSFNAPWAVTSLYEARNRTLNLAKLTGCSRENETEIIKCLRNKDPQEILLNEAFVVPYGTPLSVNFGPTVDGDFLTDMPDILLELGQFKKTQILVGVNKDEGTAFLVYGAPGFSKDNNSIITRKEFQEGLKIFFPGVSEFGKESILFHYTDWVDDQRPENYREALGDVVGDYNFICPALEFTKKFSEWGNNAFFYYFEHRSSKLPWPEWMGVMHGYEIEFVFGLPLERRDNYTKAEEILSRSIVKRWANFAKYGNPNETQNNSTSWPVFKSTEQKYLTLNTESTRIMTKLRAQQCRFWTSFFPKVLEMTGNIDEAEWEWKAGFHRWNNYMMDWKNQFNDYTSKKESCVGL

[4] = cited from earlier work
[5] = molecular target: T3, acetylcholinesterase from electric eel (Electrophorus electricus, UniProt O42275); assay: biochemical
T3 construct: purchased Sigma Chemical; host or cells: electric eel
T3 sequence (O42275 24-633): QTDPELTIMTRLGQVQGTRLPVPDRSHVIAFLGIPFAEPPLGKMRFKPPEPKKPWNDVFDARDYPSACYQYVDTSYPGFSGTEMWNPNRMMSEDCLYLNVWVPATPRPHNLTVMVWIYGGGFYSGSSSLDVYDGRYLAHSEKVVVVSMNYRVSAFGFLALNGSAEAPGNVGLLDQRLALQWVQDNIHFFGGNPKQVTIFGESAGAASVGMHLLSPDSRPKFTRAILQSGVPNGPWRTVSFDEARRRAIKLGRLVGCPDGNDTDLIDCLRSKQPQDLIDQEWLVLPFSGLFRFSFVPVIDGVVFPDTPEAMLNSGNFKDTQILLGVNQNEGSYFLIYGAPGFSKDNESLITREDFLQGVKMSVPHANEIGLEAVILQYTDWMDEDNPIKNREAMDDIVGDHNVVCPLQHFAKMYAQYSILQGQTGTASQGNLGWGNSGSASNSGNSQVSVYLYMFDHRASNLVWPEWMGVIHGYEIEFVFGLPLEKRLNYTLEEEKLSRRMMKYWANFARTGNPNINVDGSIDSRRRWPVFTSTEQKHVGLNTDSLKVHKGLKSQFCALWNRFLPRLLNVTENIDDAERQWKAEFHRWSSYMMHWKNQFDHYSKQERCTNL

[6] = molecular target: T4, acetylcholinesterase from homogenate of in toto rat brain (Rattus norvegicus, UniProt P37136); assay: Inhibition of acetylcholinesterase from rat brain homogenate; type: biochemical; conditions: contact time 10'; read-out: Cholinesterase Inhibition IC50, AChE rat brain
T4 construct: acetylcholinesterase from homogenate of in toto rat brain; from tissue; host or cells: rat whole brain homogenate
T4 sequence (P37136 32-614): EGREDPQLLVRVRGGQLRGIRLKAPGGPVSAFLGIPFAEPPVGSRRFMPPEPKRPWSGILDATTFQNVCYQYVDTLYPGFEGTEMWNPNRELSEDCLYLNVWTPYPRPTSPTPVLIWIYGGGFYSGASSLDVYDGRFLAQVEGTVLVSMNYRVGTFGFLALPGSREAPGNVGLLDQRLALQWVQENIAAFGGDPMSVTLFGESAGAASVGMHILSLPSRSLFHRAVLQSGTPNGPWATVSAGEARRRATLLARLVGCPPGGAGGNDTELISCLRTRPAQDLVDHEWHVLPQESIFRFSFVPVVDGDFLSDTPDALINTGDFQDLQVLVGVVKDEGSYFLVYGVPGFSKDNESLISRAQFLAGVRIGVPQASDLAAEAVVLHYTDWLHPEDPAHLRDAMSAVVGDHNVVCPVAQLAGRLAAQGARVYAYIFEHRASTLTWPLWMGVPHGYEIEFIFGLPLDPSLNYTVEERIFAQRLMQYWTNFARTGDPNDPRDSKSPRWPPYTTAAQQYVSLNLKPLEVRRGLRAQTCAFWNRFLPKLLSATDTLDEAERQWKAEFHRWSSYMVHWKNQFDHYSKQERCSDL
Text: The compounds prepared as per the Examples reported above and several other compounds under the present invention (Table 1) were pharmacologically tested with a view to determining their inhibitory effect on acetylcholinesterase and butyrylcholinesterase activity. The used method had been developed by Ellman et al. (Ellman, G. L., Courtney, K. D., Andres, V., Featherstone, R. M.: "A New and Rapid Colorimetric Determination of Acetylcholinesterase Activity", Biochem. Pharm. 7, 88, 1961).
AChE rat brain: acetylcholinesterase from homogenate of in toto rat brain
t: contact time (minutes)
IC50 M: median inhibitory molar concentration

in vivo = conditions: rat, po
[7] = Cholinesterase Inhibition IC50, AChE hRBC, contact time 30'
[8] = Cholinesterase Inhibition IC50, AChE hRBC, contact time 60'
[9] = contact time 10', read-out: Cholinesterase Inhibition IC50, AChE hRBC
[10] = Cholinesterase Inhibition IC50, AChE E.eel, contact time 10'

T1 sequence (P22303 32-617 isoform P22303-2 limits assumed): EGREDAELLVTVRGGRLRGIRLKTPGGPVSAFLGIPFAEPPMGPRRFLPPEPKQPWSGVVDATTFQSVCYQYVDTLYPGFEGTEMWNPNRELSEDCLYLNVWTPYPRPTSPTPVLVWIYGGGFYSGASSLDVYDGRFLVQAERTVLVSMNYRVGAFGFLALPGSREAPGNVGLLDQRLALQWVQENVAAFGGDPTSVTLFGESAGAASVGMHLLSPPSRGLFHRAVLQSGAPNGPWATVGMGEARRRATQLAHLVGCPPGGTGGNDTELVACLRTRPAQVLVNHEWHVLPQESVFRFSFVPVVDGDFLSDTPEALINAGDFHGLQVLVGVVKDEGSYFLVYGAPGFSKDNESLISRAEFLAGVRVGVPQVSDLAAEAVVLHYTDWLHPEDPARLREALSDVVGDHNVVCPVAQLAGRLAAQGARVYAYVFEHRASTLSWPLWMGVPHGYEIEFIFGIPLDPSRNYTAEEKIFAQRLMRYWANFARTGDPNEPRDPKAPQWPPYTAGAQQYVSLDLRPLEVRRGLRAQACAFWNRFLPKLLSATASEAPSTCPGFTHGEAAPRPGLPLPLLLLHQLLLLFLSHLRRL

Row | Structure (SMILES) | Acetylcholinesterase inhibition, prior art (in words) (acetylcholinesterase) | IC50 [3] | IC50 [1, 7] | IC50 [1, 9] | IC50 [5, 10] | IC50 [6] | further results
1 | CCCCCCCNC(=O)Oc1ccc2c(c1)[C@]1(C)CCN(C)[C@@H]1N2C [MF 201, heptylcarbamic ester of eseroline, reference compound] | less potent acetylcholinesterase inhibitor than physostigmine | 0.04 µM | – | – | – | – | IC50 ([1]; read-out: Cholinesterase Inhibition IC50, AChE hRBC): 0.29 µM; Neutropenia in patients (in words) (patients; clinical pilot test, Alzheimer's disease): neutropenia phenomena in some, though very few, patients; Clinical effects in patients (in words) (patients): good results in a clinical pilot test on patients affected by Alzheimer's disease; Pharmacokinetic properties (in words) [2]: better pharmacokinetic properties; Side effects, prior art (in words) [4]: reduced side effects; IC50 ([5]; contact time 10', read-out: Cholinesterase Inhibition IC50, AChE E.eel): 0.55 µM; IC50 ([5]; contact time 30', read-out: Cholinesterase Inhibition IC50, AChE E.eel): 0.41 µM; IC50 ([5]; contact time 60', read-out: Cholinesterase Inhibition IC50, AChE E.eel): 0.44 µM
2 | CN1CC[C@@]2(C)c3cc(OC(=O)NCCCCCCCCCCCCN4CCOCC4)ccc3N(C)[C@@H]12 [MF 228, N-morpholinyldodecylcarbamoyleseroline] | – | 0.1 µM | 0.06 µM | 0.07 µM | 0.07 µM | 0.38 µM | IC50 [1, 8]: 0.03 µM
3 | CNC(=O)Oc1ccc2c(c1)[C@]1(C)CCN(C)[C@@H]1N2C [ESERINE, physostigmine] | potent natural inhibitor of acetylcholinesterase | – | – | – | – | – | Clinical effects in patients (in words) (patients): beneficial effects on patients affected by mental diseases; Pharmacokinetic properties (in words) [2]: unfavourable pharmacokinetic properties; LD50 (in vivo): 4.5 mg/kg
4 | CN1CC[C@@]2(C)c3cc(OC(=O)NCCCCCCN4CCOCC4)ccc3N(C)[C@@H]12 [MF 227, N-morpholinylhexylcarbamoyleseroline] | – | 0.1 µM | 0.38 µM | 0.93 µM | 12 µM | 8.2 µM | –
5 | CN1CC[C@@]2(C)c3cc(OC(=O)NCCCCCCCN4CCOCC4)ccc3N(C)[C@@H]12 [MF 224, N-morpholinylheptylcarbamoyleseroline] | – | 0.3 µM | 0.17 µM | 0.38 µM | 1.6 µM | 4.1 µM | –
6 | CN1CC[C@@]2(C)c3cc(OC(=O)NCCCCCCCCN4CCOCC4)ccc3N(C)[C@@H]12 [MF 217, N-morpholinyloctylcarbamoyleseroline] | – | 0.17 µM | 0.076 µM | – | 0.33 µM | 0.88 µM | IC50 ([1]; Cholinesterase Inhibition IC50, AChE hRBC, contact time 10'): 0.1 µM; IC50 [1, 8]: 0.063 µM; Activity against human red blood cells acetylcholinesterase (in words) ([1]; Table 2 results): Particularly active; LD50 (in vivo): 23 mg/kg
7 | CN1CC[C@@]2(C)c3cc(OC(=O)N4CCOCC4)ccc3N(C)[C@@H]12 [MF 215, reference compound] | low acetylcholinesterase activity depression | – | – | – | – | – | Activity compared with the compounds of this invention (in words) ([1]; compared with the compounds of this invention): much lower activity; IC50 ([1]; read-out: Cholinesterase Inhibition IC50, AChE hRBC, contact time 10'): 19 µM; IC50 ([1]; read-out: Cholinesterase Inhibition IC50, AChE hRBC, contact time 30'): 12 µM; IC50 ([1]; read-out: Cholinesterase Inhibition IC50, AChE hRBC, contact time 60'): 16 µM; IC50 ([3]; read-out: Cholinesterase Inhibition IC50, BuChE hserum, contact time 10'): 870 µM
8 | CN1CC[C@@]2(C)c3cc(OC(=O)NCCCCCN4CCOCC4)ccc3N(C)[C@@H]12 [MF 225, N-morpholinylpentylcarbamoyleseroline] | – | – | 2.2 µM | 7.6 µM | 330 µM | 500 µM | –
